From paper PMC12670405, “Second-Generation AURKA-Targeting PROTACs: Structural Optimization toward in Vivo Degradation in Neuroblastoma” (Journal of Medicinal Chemistry, 2025)

Columns and labels:
Assay in all cases: KINOMEscan scanMAX
Type in all cases: binding
FLT3(ITD) = tested on: FLT3(ITD)
Protocol: (§1) The kinome-wide binding assay was performed by Eurofins Discovery using the scanMAX screening platform. More information can be found on the Eurofins Discovery Web site.

PRKCQ = target: T1, PRKCQ (Homo sapiens, UniProt Q04759); conditions: read-out: Percent Control
T1 construct: purchased Eurofins Discovery (DiscoverX KINOMEscan scanMAX)
Protocol: as §1

CSK = target: T2, CSK (Homo sapiens, UniProt P41240); conditions: read-out: Percent Control
T2 construct: purchased Eurofins Discovery (DiscoverX KINOMEscan scanMAX)
Protocol: as §1

PAK7 = target: T3, PAK7 (Homo sapiens, UniProt Q9P286); conditions: read-out: Percent Control
T3 construct: purchased Eurofins Discovery (DiscoverX KINOMEscan scanMAX)
Protocol: as §1

CDK8 = target: T4, CDK8 (Homo sapiens, UniProt P49336); conditions: read-out: Percent Control
T4 construct: purchased Eurofins Discovery (DiscoverX KINOMEscan scanMAX)
Protocol: as §1

JNK2 = target: T5, JNK2 (Homo sapiens, UniProt P45984); conditions: read-out: Percent Control
T5 construct: purchased Eurofins Discovery (DiscoverX KINOMEscan scanMAX)
T5 sequence (P45984 whole entry): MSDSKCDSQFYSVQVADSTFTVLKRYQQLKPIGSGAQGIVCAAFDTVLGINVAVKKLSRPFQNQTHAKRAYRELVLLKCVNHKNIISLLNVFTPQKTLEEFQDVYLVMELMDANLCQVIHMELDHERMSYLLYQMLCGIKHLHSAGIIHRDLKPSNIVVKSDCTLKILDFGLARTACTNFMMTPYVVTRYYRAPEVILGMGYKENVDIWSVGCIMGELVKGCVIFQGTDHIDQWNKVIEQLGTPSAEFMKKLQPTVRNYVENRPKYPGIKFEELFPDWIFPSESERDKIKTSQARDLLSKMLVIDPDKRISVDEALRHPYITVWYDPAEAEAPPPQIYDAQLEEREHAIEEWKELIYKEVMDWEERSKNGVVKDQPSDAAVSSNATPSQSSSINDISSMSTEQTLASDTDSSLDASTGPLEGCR
Protocol: as §1

p38-alpha = target: T6, p38-alpha (Homo sapiens, UniProt Q16539); conditions: read-out: Percent Control
T6 construct: purchased Eurofins Discovery (DiscoverX KINOMEscan scanMAX)
Protocol: as §1

MAP4K5 = target: T7, MAP4K5 (Homo sapiens, UniProt Q9Y4K4); conditions: read-out: Percent Control
T7 construct: purchased Eurofins Discovery (DiscoverX KINOMEscan scanMAX)
Protocol: as §1

DCAMKL2 = target: T8, DCAMKL2 (Homo sapiens, UniProt Q8N568); conditions: read-out: Percent Control
T8 construct: purchased Eurofins Discovery (DiscoverX KINOMEscan scanMAX)
T8 sequence (Q8N568 whole entry): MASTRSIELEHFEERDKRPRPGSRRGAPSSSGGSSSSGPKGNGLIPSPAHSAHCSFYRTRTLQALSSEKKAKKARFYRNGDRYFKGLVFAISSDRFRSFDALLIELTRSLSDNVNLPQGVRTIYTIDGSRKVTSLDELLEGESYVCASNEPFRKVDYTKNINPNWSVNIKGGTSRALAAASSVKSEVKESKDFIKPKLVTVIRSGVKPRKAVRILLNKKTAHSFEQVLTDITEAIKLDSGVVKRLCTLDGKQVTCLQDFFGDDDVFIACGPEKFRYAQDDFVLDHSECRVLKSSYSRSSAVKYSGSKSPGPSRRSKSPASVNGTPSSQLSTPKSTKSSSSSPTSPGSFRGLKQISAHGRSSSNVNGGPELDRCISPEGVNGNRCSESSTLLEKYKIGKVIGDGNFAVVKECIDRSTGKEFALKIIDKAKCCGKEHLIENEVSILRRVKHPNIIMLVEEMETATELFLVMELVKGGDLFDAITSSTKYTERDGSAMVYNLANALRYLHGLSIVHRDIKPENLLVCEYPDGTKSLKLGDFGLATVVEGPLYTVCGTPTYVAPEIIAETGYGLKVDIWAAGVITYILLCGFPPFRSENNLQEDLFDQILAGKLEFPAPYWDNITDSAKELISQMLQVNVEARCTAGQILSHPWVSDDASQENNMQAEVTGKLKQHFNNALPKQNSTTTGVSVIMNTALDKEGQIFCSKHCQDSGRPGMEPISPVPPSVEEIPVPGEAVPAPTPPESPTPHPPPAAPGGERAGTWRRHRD
Protocol: as §1

PIM3 = target: T9, PIM3 (Homo sapiens, UniProt Q86V86); conditions: read-out: Percent Control
T9 construct: purchased Eurofins Discovery (DiscoverX KINOMEscan scanMAX)
Protocol: as §1

PDGFRB = target: T10, PDGFRB (Homo sapiens, UniProt P09619); conditions: read-out: Percent Control
T10 construct: purchased Eurofins Discovery (DiscoverX KINOMEscan scanMAX)
Protocol: as §1

[1] = target: T11, RSK4(Kin.Dom.2-C-terminal) (Homo sapiens, UniProt Q9UK32); conditions: read-out: Percent Control
T11 construct: RSK4(Kin.Dom.2-C-terminal); purchased Eurofins Discovery (DiscoverX KINOMEscan scanMAX)
T11 sequence (Q9UK32 401-745 limits assumed): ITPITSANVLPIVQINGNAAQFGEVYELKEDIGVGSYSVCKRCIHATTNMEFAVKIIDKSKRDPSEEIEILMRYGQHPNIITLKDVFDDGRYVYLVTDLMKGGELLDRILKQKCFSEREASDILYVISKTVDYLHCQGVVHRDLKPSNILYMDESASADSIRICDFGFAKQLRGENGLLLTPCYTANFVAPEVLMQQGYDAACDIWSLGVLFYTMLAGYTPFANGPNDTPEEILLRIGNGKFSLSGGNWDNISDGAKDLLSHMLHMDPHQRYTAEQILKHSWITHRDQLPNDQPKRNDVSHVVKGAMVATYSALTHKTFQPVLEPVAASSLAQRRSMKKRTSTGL
Protocol: as §1

BUB1 = target: T12, BUB1 (Homo sapiens, UniProt O43683); conditions: read-out: Percent Control
T12 construct: purchased Eurofins Discovery (DiscoverX KINOMEscan scanMAX)
Protocol: as §1

PKMYT1 = target: T13, PKMYT1 (Homo sapiens, UniProt Q99640); conditions: read-out: Percent Control
T13 construct: purchased Eurofins Discovery (DiscoverX KINOMEscan scanMAX)
Protocol: as §1

ZAP70 = target: T14, ZAP70 (Homo sapiens, UniProt P43403); conditions: read-out: Percent Control
T14 construct: purchased Eurofins Discovery (DiscoverX KINOMEscan scanMAX)
Protocol: as §1

DLK = target: T15, DLK (Homo sapiens, UniProt Q12852); conditions: read-out: Percent Control
T15 construct: purchased Eurofins Discovery (DiscoverX KINOMEscan scanMAX)
Protocol: as §1

PIK3C2B = target: T16, PIK3C2B (Homo sapiens, UniProt O00750); conditions: read-out: Percent Control
T16 construct: purchased Eurofins Discovery (DiscoverX KINOMEscan scanMAX)
Protocol: as §1

OSR1 = target: T17, OSR1 (Homo sapiens, UniProt O95747); conditions: read-out: Percent Control
T17 construct: purchased Eurofins Discovery (DiscoverX KINOMEscan scanMAX)
Protocol: as §1

PRKCE = target: T18, PRKCE (Homo sapiens, UniProt Q02156); conditions: read-out: Percent Control
T18 construct: purchased Eurofins Discovery (DiscoverX KINOMEscan scanMAX)
Protocol: as §1

GRK2 = target: T19, GRK2 (Homo sapiens, UniProt P25098); conditions: read-out: Percent Control
T19 construct: purchased Eurofins Discovery (DiscoverX KINOMEscan scanMAX)
Protocol: as §1

PIK3CA(H1047Y) = target: T20, PIK3CA(H1047Y) (Homo sapiens, UniProt P42336, H1047Y); conditions: read-out: Percent Control
T20 construct: purchased Eurofins Discovery (DiscoverX KINOMEscan scanMAX)
Protocol: as §1

DMPK2 = target: T21, DMPK2 (Homo sapiens, UniProt Q6DT37); conditions: read-out: Percent Control
T21 construct: purchased Eurofins Discovery (DiscoverX KINOMEscan scanMAX)
T21 sequence (Q6DT37 whole entry): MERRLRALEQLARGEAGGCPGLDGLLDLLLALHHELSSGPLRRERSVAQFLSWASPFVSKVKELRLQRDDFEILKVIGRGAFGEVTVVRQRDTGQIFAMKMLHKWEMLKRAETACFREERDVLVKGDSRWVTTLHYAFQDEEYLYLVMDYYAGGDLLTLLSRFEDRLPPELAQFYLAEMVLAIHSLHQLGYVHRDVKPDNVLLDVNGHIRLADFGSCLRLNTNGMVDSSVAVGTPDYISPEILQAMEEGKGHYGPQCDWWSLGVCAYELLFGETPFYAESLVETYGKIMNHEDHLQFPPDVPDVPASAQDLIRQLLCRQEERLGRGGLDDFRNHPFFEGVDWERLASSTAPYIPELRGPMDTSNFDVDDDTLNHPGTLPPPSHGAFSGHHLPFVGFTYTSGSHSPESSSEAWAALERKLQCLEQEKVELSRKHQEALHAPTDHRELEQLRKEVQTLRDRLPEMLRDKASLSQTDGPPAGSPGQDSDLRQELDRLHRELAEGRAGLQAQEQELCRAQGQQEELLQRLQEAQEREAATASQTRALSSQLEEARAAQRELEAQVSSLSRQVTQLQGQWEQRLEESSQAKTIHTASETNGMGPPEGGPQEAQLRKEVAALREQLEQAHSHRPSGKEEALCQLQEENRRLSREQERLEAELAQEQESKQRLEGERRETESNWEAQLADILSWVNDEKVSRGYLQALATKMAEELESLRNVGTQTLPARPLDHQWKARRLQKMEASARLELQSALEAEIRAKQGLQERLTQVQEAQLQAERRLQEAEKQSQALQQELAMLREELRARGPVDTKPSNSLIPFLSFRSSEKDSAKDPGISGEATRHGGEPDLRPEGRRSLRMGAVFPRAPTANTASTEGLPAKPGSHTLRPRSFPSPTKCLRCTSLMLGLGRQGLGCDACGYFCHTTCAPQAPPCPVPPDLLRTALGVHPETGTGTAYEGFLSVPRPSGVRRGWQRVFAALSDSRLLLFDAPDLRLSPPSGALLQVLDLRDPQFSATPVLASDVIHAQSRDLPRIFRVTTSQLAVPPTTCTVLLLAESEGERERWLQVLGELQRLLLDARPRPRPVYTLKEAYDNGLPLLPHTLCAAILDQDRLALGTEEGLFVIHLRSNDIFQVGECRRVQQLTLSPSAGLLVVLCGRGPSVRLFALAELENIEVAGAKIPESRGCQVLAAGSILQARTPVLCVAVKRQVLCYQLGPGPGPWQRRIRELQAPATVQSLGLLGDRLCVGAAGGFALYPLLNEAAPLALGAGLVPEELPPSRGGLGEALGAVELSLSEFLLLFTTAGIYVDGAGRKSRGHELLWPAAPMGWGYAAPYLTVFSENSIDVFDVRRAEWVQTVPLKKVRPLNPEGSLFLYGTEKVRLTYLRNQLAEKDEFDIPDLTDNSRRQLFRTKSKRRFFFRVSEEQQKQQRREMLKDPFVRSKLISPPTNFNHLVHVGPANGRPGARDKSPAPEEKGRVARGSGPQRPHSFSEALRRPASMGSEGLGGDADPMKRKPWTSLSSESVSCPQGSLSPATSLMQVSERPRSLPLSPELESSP
Protocol: as §1

KIT(D816H) = target: T22, KIT(D816H) (Homo sapiens, UniProt P10721, D816H); conditions: read-out: Percent Control
T22 construct: purchased Eurofins Discovery (DiscoverX KINOMEscan scanMAX)
Protocol: as §1

PIP5K2C = target: T23, PIP5K2C (Homo sapiens, UniProt Q8TBX8); conditions: read-out: Percent Control
T23 construct: purchased Eurofins Discovery (DiscoverX KINOMEscan scanMAX)
Protocol: as §1

DCAMKL3 = target: T24, DCAMKL3 (Homo sapiens, UniProt Q9C098); conditions: read-out: Percent Control
T24 construct: purchased Eurofins Discovery (DiscoverX KINOMEscan scanMAX)
T24 sequence (Q9C098 whole entry): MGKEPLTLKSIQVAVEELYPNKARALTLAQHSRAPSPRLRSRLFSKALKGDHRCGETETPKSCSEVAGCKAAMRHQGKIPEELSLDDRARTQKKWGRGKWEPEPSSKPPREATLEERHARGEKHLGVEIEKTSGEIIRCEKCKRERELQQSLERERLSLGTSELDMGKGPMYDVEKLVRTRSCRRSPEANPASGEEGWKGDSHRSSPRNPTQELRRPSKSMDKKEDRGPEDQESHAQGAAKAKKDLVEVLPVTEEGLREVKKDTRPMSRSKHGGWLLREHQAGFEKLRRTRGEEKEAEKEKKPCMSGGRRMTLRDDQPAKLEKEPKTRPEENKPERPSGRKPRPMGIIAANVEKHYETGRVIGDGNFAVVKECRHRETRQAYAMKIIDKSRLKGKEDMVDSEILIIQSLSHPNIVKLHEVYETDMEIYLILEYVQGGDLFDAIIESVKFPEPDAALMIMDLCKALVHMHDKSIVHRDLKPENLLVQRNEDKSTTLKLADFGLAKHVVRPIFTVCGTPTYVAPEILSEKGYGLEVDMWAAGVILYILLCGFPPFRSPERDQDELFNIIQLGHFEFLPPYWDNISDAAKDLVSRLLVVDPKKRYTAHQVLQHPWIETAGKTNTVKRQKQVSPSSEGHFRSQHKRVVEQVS
Protocol: as §1

IGF1R = target: T25, IGF1R (Homo sapiens, UniProt P08069); conditions: read-out: Percent Control
T25 construct: purchased Eurofins Discovery (DiscoverX KINOMEscan scanMAX)
T25 sequence (P08069 31-1367): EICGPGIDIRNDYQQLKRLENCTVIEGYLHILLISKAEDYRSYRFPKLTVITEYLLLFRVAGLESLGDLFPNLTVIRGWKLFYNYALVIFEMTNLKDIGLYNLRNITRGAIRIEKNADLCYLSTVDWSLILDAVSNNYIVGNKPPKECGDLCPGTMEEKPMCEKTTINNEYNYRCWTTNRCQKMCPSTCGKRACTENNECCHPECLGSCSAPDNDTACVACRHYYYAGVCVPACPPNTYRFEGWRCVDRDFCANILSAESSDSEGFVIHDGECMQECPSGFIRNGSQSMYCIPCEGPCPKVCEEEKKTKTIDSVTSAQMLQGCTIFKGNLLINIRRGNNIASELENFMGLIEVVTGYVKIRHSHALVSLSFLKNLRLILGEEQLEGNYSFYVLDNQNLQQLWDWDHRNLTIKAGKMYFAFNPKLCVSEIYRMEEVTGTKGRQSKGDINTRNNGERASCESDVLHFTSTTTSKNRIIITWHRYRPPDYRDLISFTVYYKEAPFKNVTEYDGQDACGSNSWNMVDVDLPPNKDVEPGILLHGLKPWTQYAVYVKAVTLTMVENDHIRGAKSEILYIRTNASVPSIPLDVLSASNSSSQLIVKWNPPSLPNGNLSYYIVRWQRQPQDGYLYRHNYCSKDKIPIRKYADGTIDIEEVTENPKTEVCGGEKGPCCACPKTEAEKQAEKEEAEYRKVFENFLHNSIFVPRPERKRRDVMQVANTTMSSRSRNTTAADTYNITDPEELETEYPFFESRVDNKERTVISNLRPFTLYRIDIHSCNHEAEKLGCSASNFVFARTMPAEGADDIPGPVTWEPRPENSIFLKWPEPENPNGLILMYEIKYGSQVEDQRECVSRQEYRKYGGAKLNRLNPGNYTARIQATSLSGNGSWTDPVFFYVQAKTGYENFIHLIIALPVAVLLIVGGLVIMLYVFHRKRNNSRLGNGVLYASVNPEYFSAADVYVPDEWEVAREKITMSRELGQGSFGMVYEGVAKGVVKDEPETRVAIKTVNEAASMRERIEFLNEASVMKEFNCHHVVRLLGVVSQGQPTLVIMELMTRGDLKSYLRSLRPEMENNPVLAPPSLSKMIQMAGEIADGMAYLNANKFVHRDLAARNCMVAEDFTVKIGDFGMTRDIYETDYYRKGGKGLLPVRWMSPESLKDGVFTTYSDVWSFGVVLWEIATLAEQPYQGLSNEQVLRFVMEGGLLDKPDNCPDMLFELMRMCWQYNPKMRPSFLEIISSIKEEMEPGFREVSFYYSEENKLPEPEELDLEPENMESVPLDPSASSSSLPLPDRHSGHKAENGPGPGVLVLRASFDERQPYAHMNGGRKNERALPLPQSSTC
Protocol: as §1

EPHA6 = target: T26, EPHA6 (Homo sapiens, UniProt Q9UF33); conditions: read-out: Percent Control
T26 construct: purchased Eurofins Discovery (DiscoverX KINOMEscan scanMAX)
Protocol: as §1

CDK7 = target: T27, CDK7 (Homo sapiens, UniProt P50613); conditions: read-out: Percent Control
T27 construct: purchased Eurofins Discovery (DiscoverX KINOMEscan scanMAX)
Protocol: as §1

MARK4 = target: T28, MARK4 (Homo sapiens, UniProt Q96L34); conditions: read-out: Percent Control
T28 construct: purchased Eurofins Discovery (DiscoverX KINOMEscan scanMAX)
Protocol: as §1

PIK3CA(C420R) = target: T29, PIK3CA(C420R) (Homo sapiens, UniProt P42336, C420R); conditions: read-out: Percent Control
T29 construct: purchased Eurofins Discovery (DiscoverX KINOMEscan scanMAX)
Protocol: as §1

MYLK4 = target: T30, MYLK4 (Homo sapiens, UniProt Q86YV6); conditions: read-out: Percent Control
T30 construct: purchased Eurofins Discovery (DiscoverX KINOMEscan scanMAX)
Protocol: as §1

PAK2 = target: T31, PAK2 (Homo sapiens, UniProt Q13177); conditions: read-out: Percent Control
T31 construct: purchased Eurofins Discovery (DiscoverX KINOMEscan scanMAX)
Protocol: as §1

FLT1 = target: T32, FLT1 (Homo sapiens, UniProt P17948); conditions: read-out: Percent Control
T32 construct: purchased Eurofins Discovery (DiscoverX KINOMEscan scanMAX)
Protocol: as §1

PAK3 = target: T33, PAK3 (Homo sapiens, UniProt O75914); conditions: read-out: Percent Control
T33 construct: purchased Eurofins Discovery (DiscoverX KINOMEscan scanMAX)
Protocol: as §1

## Cc1cc(Nc2ccc(F)c(CC3(C(=O)N4CCC(F)(CN5CCN(c6ccc(N7CCC(=O)NC7=O)cn6)CC5)CC4)CCN(Cc4cccc(Cl)c4F)CC3)n2)n[nH]1 [SK5527]
FLT3(ITD); 100 nM
  Percent Control: 89%
FLT3(ITD); 1000 nM
  Percent Control: 94%
PRKCQ; 100 nM
  remaining binding at 0.1 µM: 100%
PRKCQ; 1000 nM
  remaining binding at 1 µM: 94%
CSK; 100 nM
  remaining binding at 0.1 µM: 100%
CSK; 1000 nM
  remaining binding at 1 µM: 100%
PAK7; 100 nM
  remaining binding at 0.1 µM: 98%
PAK7; 1000 nM
  remaining binding at 1 µM: 74%
CDK8; 100 nM
  remaining binding at 0.1 µM: 88%
CDK8; 1000 nM
  remaining binding at 1 µM: 89%
JNK2; 100 nM
  remaining binding at 0.1 µM: 67%
JNK2; 1000 nM
  remaining binding at 1 µM: 74%
p38-alpha; 100 nM
  remaining binding at 0.1 µM: 100%
p38-alpha; 1000 nM
  remaining binding at 1 µM: 100%
MAP4K5; 100 nM
  remaining binding at 0.1 µM: 100%
MAP4K5; 1000 nM
  remaining binding at 1 µM: 100%
DCAMKL2; 100 nM
  remaining binding at 0.1 µM: 93%
DCAMKL2; 1000 nM
  remaining binding at 1 µM: 91%
PIM3; 100 nM
  remaining binding at 0.1 µM: 100%
PIM3; 1000 nM
  remaining binding at 1 µM: 100%
PDGFRB; 100 nM
  remaining binding at 0.1 µM: 100%
PDGFRB; 1000 nM
  remaining binding at 1 µM: 63%
[1]; 100 nM
  remaining binding at 0.1 µM: 75%
[1]; 1000 nM
  remaining binding at 1 µM: 80%
BUB1; 100 nM
  remaining binding at 0.1 µM: 100%
BUB1; 1000 nM
  remaining binding at 1 µM: 100%
PKMYT1; 100 nM
  remaining binding at 0.1 µM: 81%
PKMYT1; 1000 nM
  remaining binding at 1 µM: 58%
ZAP70; 100 nM
  remaining binding at 0.1 µM: 97%
ZAP70; 1000 nM
  remaining binding at 1 µM: 100%
DLK; 100 nM
  remaining binding at 0.1 µM: 71%
DLK; 1000 nM
  remaining binding at 1 µM: 55%
PIK3C2B; 100 nM
  remaining binding at 0.1 µM: 99%
PIK3C2B; 1000 nM
  remaining binding at 1 µM: 91%
OSR1; 100 nM
  remaining binding at 0.1 µM: 100%
OSR1; 1000 nM
  remaining binding at 1 µM: 97%
PRKCE; 100 nM
  remaining binding at 0.1 µM: 100%
PRKCE; 1000 nM
  remaining binding at 1 µM: 95%
GRK2; 100 nM
  remaining binding at 0.1 µM: 100%
GRK2; 1000 nM
  remaining binding at 1 µM: 100%
PIK3CA(H1047Y); 100 nM
  remaining binding at 0.1 µM: 95%
PIK3CA(H1047Y); 1000 nM
  remaining binding at 1 µM: 100%
DMPK2; 100 nM
  remaining binding at 0.1 µM: 100%
DMPK2; 1000 nM
  remaining binding at 1 µM: 100%
KIT(D816H); 100 nM
  remaining binding at 0.1 µM: 100%
KIT(D816H); 1000 nM
  remaining binding at 1 µM: 100%
PIP5K2C; 100 nM
  remaining binding at 0.1 µM: 100%
PIP5K2C; 1000 nM
  remaining binding at 1 µM: 100%
DCAMKL3; 100 nM
  remaining binding at 0.1 µM: 100%
DCAMKL3; 1000 nM
  remaining binding at 1 µM: 100%
IGF1R; 100 nM
  remaining binding at 0.1 µM: 87%
IGF1R; 1000 nM
  remaining binding at 1 µM: 89%
EPHA6; 100 nM
  remaining binding at 0.1 µM: 100%
EPHA6; 1000 nM
  remaining binding at 1 µM: 93%
CDK7; 100 nM
  remaining binding at 0.1 µM: 91%
CDK7; 1000 nM
  remaining binding at 1 µM: 100%
MARK4; 100 nM
  remaining binding at 0.1 µM: 100%
MARK4; 1000 nM
  remaining binding at 1 µM: 100%
PIK3CA(C420R); 100 nM
  remaining binding at 0.1 µM: 63%
PIK3CA(C420R); 1000 nM
  remaining binding at 1 µM: 100%
MYLK4; 100 nM
  remaining binding at 0.1 µM: 100%
MYLK4; 1000 nM
  remaining binding at 1 µM: 100%
PAK2; 100 nM
  remaining binding at 0.1 µM: 100%
PAK2; 1000 nM
  remaining binding at 1 µM: 79%
FLT1; 100 nM
  remaining binding at 0.1 µM: 91%
FLT1; 1000 nM
  remaining binding at 1 µM: 86%
PAK3; 100 nM
  remaining binding at 0.1 µM: 100%
PAK3; 1000 nM
  remaining binding at 1 µM: 100%
